Patent publication US20180327367A1, “MACROCYCLIC BROAD SPECTRUM ANTIBIOTICS” (priority 2015, published 2018)
≈ marks a conversion by molar mass, not a printed value. Like-named read-outs stand apart in the source and are kept apart here.

How the values were obtained:
[1] = system: Escherichia coli MC4100 harboring the IMP4213 (E. coli IMP); assay: microbe, parasite or virus in culture; format: cell-based; conditions: Escherichia coli, 22 h, read-out: MIC (μg/mL) E. coli IMP, E. coli MC4100 IMP4213, increased outer-membrane permeability; 35° C., 22 hours
How it was run: (§1)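 Ten-point 2-fold series began at 4 μg/mL in protocol 2 and 0.5 μg/mL in protocol 3, in cation-adjusted MHB plus 0.002% Tween-80. Bacteria added to OD600 0.0005 final and incubated at 35° C for 22 hours per CLSI microdilution.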

[2] = system: Methicillin Resistant Staphylococcus aureus strain USA 300, NRS384; assay: Minimum inhibitory concentration, broth micro-dilution (CLSI), S. aureus; format: cell-based; conditions: Staphylococcus aureus, MRSA / NRS 384 / USA300, 22 h, 35° C., 22 hours
How it was run: as §1

[3] = molecular target: T1, SpsB (Staphylococcus aureus signal peptidase) (Staphylococcus aureus, UniProt P0A070); assay: cell-based; format: biochemical; conditions: SpsB IC50, whole-cell S. aureus (USA300 background, overexpressing SpsB) as SpsB source; fluorogenic peptide substrate, kinetic read 30 min
T1 construct: This assay uses a suspension of Staphylococcus aureus cells as a source of SpsB instead of recombinant SpsB protein; endogenous in cells; host or cells: S. aureus, USA300 background, overexpressing SpsB (whole-cell suspension from frozen pellets)
How it was run: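 Cleavage of an internally quenched (Dabcyl)βAla-KPAKAAE(Edans) peptide, added as 20 μM solution mixed 1:1 with cells, was followed for 30 min at 340/490 nm. SpsB came from a suspension of SpsB-overexpressing USA300 S. aureus in Tween-80-containing PBS buffer. Slopes plotted against 3-fold compound dilutions gave IC50.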

[4] = system: Escherichia coli ATCC 25922; assay: Minimum inhibitory concentration, broth micro-dilution (CLSI), E. coli; format: cell-based; conditions: Escherichia coli, ATCC25922, 22 h, 35° C., 22 hours
[5] = MRSA USA 300 NRS384, read-out: MIC (μg/mL) S. aureus
[6] = E. coli ATCC 25922, read-out: MIC (μg/mL) E. coli
[7] = read-out: MIC (μg/mL) S. aureus, MRSA USA 300 NRS384
[8] = read-out: MIC (μg/mL) E. coli, E. coli ATCC 25922

T1 sequence (P0A070 whole entry): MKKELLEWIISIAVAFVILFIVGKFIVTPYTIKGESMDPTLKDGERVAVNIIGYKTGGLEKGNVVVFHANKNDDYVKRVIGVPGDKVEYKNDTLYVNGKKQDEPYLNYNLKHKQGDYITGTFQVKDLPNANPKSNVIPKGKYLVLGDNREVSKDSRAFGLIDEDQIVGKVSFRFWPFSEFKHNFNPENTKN

Row | SMILES | MIC [1] [µg/mL] | MIC [2, 5] [µg/mL] | IC50 [3] [nM] | MIC [4, 6] [µg/mL] | MIC [2, 7] [µg/mL] | MIC [4, 8] [µg/mL]
1 | CCCCCCCCc1ccc(C(=O)N(C)[C@@H]2C(=O)N[C@@H](C)C(=O)N[C@H](C(=O)NCC#N)Cc3ccc(OCCN)c(c3)-c3cc2ccc3OCCN)cc1 [Compound 476] | 8 (≈ 10.6 µM) | 2 (≈ 2.65 µM) | 86 | 32 (≈ 42.4 µM) |  | 
2 | CCCCCCCc1cc(C)c(C(=O)N[C@@H](CCN)C(=O)N(C)[C@@H]2C(=O)N[C@@H](C)C(=O)N[C@H](C(=O)NCC#N)Cc3ccc(OCCN)c(c3)-c3cc2ccc3OCCN)cn1 [Compound 313] | 0.0078 (≈ 0.00912 µM) | 0.031 (≈ 0.0363 µM) | 0.68 | 0.5 (≈ 0.585 µM) |  | 
3 | CCCCCCCCCCNCCC(=O)N[C@@H](CO)C(=O)N(C)[C@@H]1C(=O)N[C@@H](C)C(=O)N[C@H](C(=O)NCC#N)Cc2ccc(O)c(c2)-c2cc1ccc2O [Compound 469] | > 4 | 4 (≈ 5.33 µM) | 5 | > 64 |  | 
4 | CCCCc1ccc(Oc2ccc(C(=O)N[C@@H](CCN)C(=O)N(C)[C@@H]3C(=O)N[C@@H](C)C(=O)N[C@H](C(=O)NCC#N)Cc4ccc(OCCN)c(c4)-c4cc3ccc4OCCN)c(C)c2)cc1 [Compound 303] | 0.012 (≈ 0.0133 µM) | 0.047 (≈ 0.052 µM) | 0.93 | 0.19 (≈ 0.21 µM) |  | 
5 | C[C@@H]1NC(=O)[C@@H](N(C)C(=O)[C@H](CCN)NC(=O)c2ccc(C#Cc3ccccc3)cc2F)c2ccc(OCCN)c(c2)-c2cc(ccc2OCCN)C[C@@H](C(=O)NCC#N)NC1=O [Compound 423] | 0.014 (≈ 0.0163 µM) |  | 0.85 |  | 0.063 (≈ 0.0733 µM) | 0.44 (≈ 0.512 µM)
6 | CCCCc1ccc(-c2ccc(C(=O)N[C@@H](CCCN)C(=O)N(C)[C@@H]3C(=O)N[C@@H](C)C(=O)N[C@H](C(=O)NCC#N)Cc4ccc(OCCN)c(c4)-c4cc3ccc4OCCN)c(C)c2)cc1 [Compound 142] | 0.042 (≈ 0.0466 µM) | 0.039 (≈ 0.0432 µM) | 0.72 | 0.16 (≈ 0.177 µM) |  | 
7 | CCCCCCCCc1ccc(C(=O)N[C@@H](CCCN)C(=O)N(C)[C@@H]2C(=O)N[C@@H](C)C(=O)N[C@H](C(=O)NCC#N)Cc3ccc(OCCN)c(c3)-c3cc2ccc3OCCN)cc1 [Compound 335] | 0.016 (≈ 0.0184 µM) | 0.031 (≈ 0.0357 µM) | 0.56 | 0.25 (≈ 0.288 µM) |  | 
8 | CCCCCCCCCCNCCC(=O)N(C)[C@@H]1C(=O)N[C@@H](C)C(=O)N[C@H](C(=O)NCC#N)Cc2ccc(OCCN)c(c2)-c2cc1ccc2OCCN [Compound 131] | 1.8 (≈ 2.4 µM) | 0.047 (≈ 0.0628 µM) | 0.74 | 64 (≈ 85.5 µM) |  | 
9 | CCCCCCCCc1ccc(C(=O)N[C@@H](CCN)C(=O)N(C)[C@@H]2C(=O)N[C@@H](C)C(=O)N[C@H](C(=O)NCC#N)Cc3ccc(OCCN)c(c3)-c3cc2ccc3OCCN)c(SC)c1 [Compound 185] | 0.094 (≈ 0.104 µM) | 0.19 (≈ 0.211 µM) | 0.91 | 0.75 (≈ 0.833 µM) |  | 
10 | COc1ccc(-c2ccc(C(=O)N[C@@H](CCCCN)C(=O)N(C)[C@@H]3C(=O)N[C@@H](C)C(=O)N[C@H](C(=O)NCC#N)Cc4ccc(OCCN)c(c4)-c4cc3ccc4OCCN)cc2)cc1OC [Compound 109] | 1 (≈ 1.1 µM) | 2 (≈ 2.21 µM) | 7.5 | > 64 |  | 
11 | Cc1cc(CC(C)(C)C)ccc1C(=O)N[C@@H](CCN)C(=O)N(C)[C@@H]1C(=O)N[C@@H](C)C(=O)N[C@H](C(=O)NCC#N)Cc2ccc(OCCN)c(c2)-c2cc1ccc2OCCN [Compound 219] | 0.023 (≈ 0.0278 µM) | 0.19 (≈ 0.23 µM) | 1.9 | 1.5 (≈ 1.82 µM) |  | 
12 | CCCCCCCCCCCC(=O)N[C@H](C(=O)N(C)[C@@H]1C(=O)N[C@@H](C)C(=O)N[C@H](C(=O)NCC#N)Cc2ccc(OCCN)c(c2)-c2cc1ccc2OCCN)[C@@H](C)O [Compound 256] | 0.094 (≈ 0.114 µM) | 0.19 (≈ 0.231 µM) | 0.8 | 16 (≈ 19.5 µM) |  | 
13 | CCCCc1ccc(-c2ccc(C(=O)N[C@@H](CCCCN)C(=O)N(C)[C@@H]3C(=O)N[C@@H](C)C(=O)N[C@H](C(=O)N[C@H](C)C#N)Cc4ccc(OCCN)c(c4)-c4cc3ccc4OCCN)cc2)cc1 [Compound 136] | 0.38 (≈ 0.415 µM) | 2 (≈ 2.18 µM) | 10 | 8 (≈ 8.73 µM) |  | 
14 | CCC/C=C\c1ccc(C(=O)N[C@@H](CCN)C(=O)N(C)[C@@H]2C(=O)N[C@@H](C)C(=O)N[C@H](C(=O)NCC#N)Cc3ccc(OCCN)c(c3)-c3cc2ccc3OCCN)c(C)c1 [Compound 308] | 0.016 (≈ 0.0194 µM) | 0.063 (≈ 0.0765 µM) | 0.71 | 1 (≈ 1.21 µM) |  | 
15 | CCCCCCCCCCCC(=O)N[C@@H](CCC(=O)O)C(=O)N(C)[C@@H]1C(=O)N[C@@H](C)C(=O)N[C@H](C(=O)NCC#N)Cc2ccc(OCCN)c(c2)-c2cc1ccc2OCCN [Compound 253] | 2 (≈ 2.36 µM) | 2 (≈ 2.36 µM) | 12 | > 64 |  | 
16 | Cc1cc(CCC(C)C)ccc1C(=O)N[C@@H](CCN)C(=O)N(C)[C@@H]1C(=O)N[C@@H](C)C(=O)N[C@H](C(=O)NCC#N)Cc2ccc(OCCN)c(c2)-c2cc1ccc2OCCN [Compound 217] | 0.016 (≈ 0.0194 µM) | 0.094 (≈ 0.114 µM) | 0.88 | 0.5 (≈ 0.605 µM) |  | 
17 | Cc1cc(-n2cc(CC(C)C)cn2)ccc1C(=O)N[C@@H](CCN)C(=O)N(C)[C@@H]1C(=O)N[C@@H](C)C(=O)N[C@H](C(=O)NCC#N)Cc2ccc(OCCN)c(c2)-c2cc1ccc2OCCN [Compound 445] | 0.016 (≈ 0.0182 µM) | 0.094 (≈ 0.107 µM) | 1 | 1 (≈ 1.14 µM) |  | 
18 | CCCCc1ccc(C(=O)N[C@@H](CCO)C(=O)N(C)[C@@H]2C(=O)N[C@@H](C)C(=O)N[C@H](C(=O)NCC#N)Cc3ccc(OCCN)c(c3)-c3cc2ccc3OCCN)c(C)c1 [Compound 258] | 0.19 (≈ 0.234 µM) | 1 (≈ 1.23 µM) | 2.8 | 64 (≈ 78.7 µM) |  | 
19 | CCCCCCCCCCNCCS(=O)(=O)N[C@@H](CCO)C(=O)N(C)[C@@H]1C(=O)N[C@@H](C)C(=O)N[C@H](C(=O)NCC#N)Cc2ccc(OCCN)c(c2)-c2cc1ccc2OCCN [Compound 348] | 1 (≈ 1.13 µM) |  | 0.8 |  | 0.055 (≈ 0.0621 µM) | > 64
20 | CCCCOc1ccc(C(=O)N[C@@H](CCN)C(=O)N(C)[C@@H]2C(=O)N[C@@H](C)C(=O)N[C@H](C(=O)NCC#N)Cc3ccc(OCCN)c(c3)-c3cc2ccc3OCCN)c(Cl)c1 [Compound 269] | 0.023 (≈ 0.0271 µM) | 0.25 (≈ 0.295 µM) | 1.2 | 1 (≈ 1.18 µM) |  | 
21 | CCC(C)c1ccc(C(=O)N[C@@H](CCN)C(=O)N(C)[C@@H]2C(=O)N[C@@H](C)C(=O)N[C@H](C(=O)NCC#N)Cc3ccc(OCCN)c(c3)-c3cc2ccc3OCCN)c(C)c1 (stereo partly drawn) [Compound 434] | 0.047 (≈ 0.0579 µM) | 0.25 (≈ 0.308 µM) | 1.5 | 2 (≈ 2.46 µM) |  | 
22 | Cc1cc(OCC(C)C)ccc1C(=O)N[C@@H](CCN)C(=O)N(C)[C@@H]1C(=O)N[C@@H](C)C(=O)N[C@H](C(=O)NCC#N)Cc2ccc(OCCN)c(c2)-c2cc1ccc2OCCN [Compound 276] | 0.031 (≈ 0.0374 µM) | 0.58 (≈ 0.7 µM) | 1.8 | 2 (≈ 2.42 µM) |  | 
23 | C[C@@H]1NC(=O)[C@@H](N(C)C(=O)[C@H](CCN)NC(=O)c2ccc(-c3ccc4c(c3)CCCC4)cc2F)c2ccc(OCCN)c(c2)-c2cc(ccc2OCCN)C[C@@H](C(=O)NCC#N)NC1=O [Compound 139] | 0.012 (≈ 0.0135 µM) |  | 0.94 |  | 0.047 (≈ 0.0528 µM) | 0.25 (≈ 0.281 µM)
24 | CCCCCCCCCCCCCC(=O)N[C@@H](CCN)C(=O)N(C)[C@@H]1C(=O)N[C@@H](C)C(=O)N[C@H](C(=O)NCC#N)Cc2ccc(OC)c(c2)-c2cc1ccc2OCCN [Compound 326] | 0.016 (≈ 0.0195 µM) | 0.19 (≈ 0.232 µM) | 0.98 | 1 (≈ 1.22 µM) |  | 
